Experimental data taken from patent US5912230A, “Anti-fungal and anti-bacterial histatin-based peptides” (priority 1998, dated 1999).
pIC50: −log10 of the molar value. Like-named read-outs stand apart in the source and are kept apart here. Where no end group is shown, it is not given here.

Experiments:
[1] = system: P. gingivalis hemagglutination of erythrocytes; assay: histatin peptide inhibition of hemagglutination assay; assay type: cell-based, Porphyromonas gingivalis; settings: for Hemagglutination: lowest dose (μM) at which hemagglutination was observed using P. Gingivalis: 2 hours at room temperature, visual examination
Procedure: The P. gingivalis strain of Section C.(1) was also used for the hemagglutination assays. The bacterial growth and culture conditions were also the same as those described in Section C.(1).
A classic assay was utilized to determine the hemagglutination potential of the P. gingivalis strain. Microorganisms were inoculated into BFB broth and cultured overnight, for approximately 24 hours at 37° C. under strictly anaerobic conditions with continuous agitation on a minishaker (IKA-Labortechnik, Staufen i. Br., Germany). The bacteria were harvested by centrifugatin at 3,000 r.p.m. for 20 min, at 4° C., washed twice in 0.01M phosphate buffered saline (PBS), pH 7.4, and suspended in the same buffer to an optical density of 1.0 at 550 nm. […] One ml of blood was drawn each time, washed twice in PBS at 1,000 r.p.m. for 10 min at 4° C. and suspended in the same buffer at a 2% (v/v) final concentration. Fifty μl of the bacterial suspension were serially diluted in PBS (two-fold steps) in a 96-well U-bottom microplate (Costar, Cambridge, Mass.). Fifty μl of the erythrocyte suspension were added to each well. Controls without bacteria or erythrocytes were included. The microplate was slightly shaken and incubated at room temperature for 2 hours. Visible examination on a white background was used to determine hemagglutination. The amount of hemagglutination was rated as none,(-), moderate (+/-), or strong (+). Erythrocytes in control wells with PBS precipitated to the center of the well, whereas erythrocyte-bacteria aggregates precipitated at the periphery of the bottom. The hemagglutination titer was expressed as the reciprocal of the highest dilution of the bacterial suspension providing visible hemagglutination.
Preparation of erythrocyte and bacterial suspensions were the same as for the hemagglutination assay. Fifty μl of histatin peptide solutions were diluted in PBS in a U-bottom microplate, at various two-fold concentrations with 600 nmole/ml being the highest. The bacterial concentration utilized was normally twice the minimal concentration which gave strong hemagglutination. Equal volumes of the bacterial suspension were poured into the wells containing the histatin peptides. Finally, 50 μl of erythrocyte suspension were added in each well. The microplate was slightly shaken and incubated at room temperature for 2 hours. Controls were made by replacement of the peptide dilutions with PBS only. The experiments were conducted at least twice. The lowest histatin peptide concentration without hemagglutination (complete inhibition) was determined upon visual examination. The highest final histatin peptide concentration utilized was 100 nmole/ml.

[2] = biological target: T1, Clostripain (Hathewaya histolytica, UniProt P09870); assay: clostripain assay (BAPNA hydrolysis); assay type: biochemical, Clostridium histolyticum
T1 construct: purchased Sigma Chemical Corp., St. Louis, Mo
T1 sequence (P09870 whole entry, looked up): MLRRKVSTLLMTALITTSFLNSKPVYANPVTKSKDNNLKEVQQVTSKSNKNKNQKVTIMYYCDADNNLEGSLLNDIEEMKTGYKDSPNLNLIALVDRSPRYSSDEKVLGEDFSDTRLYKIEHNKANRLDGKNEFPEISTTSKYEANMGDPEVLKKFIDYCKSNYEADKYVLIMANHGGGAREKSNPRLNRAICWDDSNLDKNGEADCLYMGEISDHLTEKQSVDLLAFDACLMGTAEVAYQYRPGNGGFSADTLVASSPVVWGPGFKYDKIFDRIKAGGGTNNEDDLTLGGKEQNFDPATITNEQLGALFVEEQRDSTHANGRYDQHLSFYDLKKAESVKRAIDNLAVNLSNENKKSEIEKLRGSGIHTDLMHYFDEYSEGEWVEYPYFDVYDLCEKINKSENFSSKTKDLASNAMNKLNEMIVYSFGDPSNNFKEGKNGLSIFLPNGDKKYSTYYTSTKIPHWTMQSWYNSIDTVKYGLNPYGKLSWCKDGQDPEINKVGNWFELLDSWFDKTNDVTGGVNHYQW
Procedure: (§1) Clostripain from Clostridium histolyticum (Sigma Chemical Corp., St. Louis, Mo.) was dissolved in deionized water to a concentration of 1 mg/mL (300 units/mg) and activated with the addition of 10 mmol/L DTT. To measure its hydrolytic activity, clostripain (6 units) was added to […] Hepes buffer, pH 7.5, containing 80 gmol/L BAPNA (benzoyl-arginine-p-nitroanilide), together with 5.6 μmol/L of histatin peptide inhibitor. As controls, assays were performed in the absence of any histatin peptide inhibitor. The activity was monitored continuously at 405 nm using a Molecular Devices VMax microtitre plate reader. The activities were determined from the maximum rates of substrate hydrolysis. Assays were done in duplicate, and the means normalized to the controls.

[3] = biological target: T2, Clostripain (Hathewaya histolytica, UniProt P09870); assay: clostripain assay (BAPNA hydrolysis); assay type: biochemical, Clostridium histolyticum; settings: for IC50: read-out: Clostripain: IC50 (μM) for inhibition of Clostripain
T2 construct: purchased Sigma Chemical Corp., St. Louis, Mo
Procedure: as §1

| Substance | bacteria mediated hemagglutination inhibition, in words [1] | Hemagglutination: lowest dose (μM) at which hemagglutination was observed using P. Gingivalis [1] [µM] | clostripain inhibition, in words [2] | pIC50 [3] | clostripain inhibition, in words [3] | IC50 [3] [µM] |
| --- | --- | --- | --- | --- | --- | --- |
| His 11: histatin 11 (SEQ ID NO: 11), subpeptide of peptide 113 (KRHHGYKR) | bacteria mediated hemagglutination inhibition | 100 | clostripain inhibition effects |  |  |  |
| AKRHHGYKR [peptide 120] | bacteria mediated hemagglutination inhibition | 50 |  | < 4.30 | clostripain inhibition effects |  |
| AKRHHGYKRK [peptide 119] | bacteria mediated hemagglutination inhibition | 25 |  | < 4.30 | clostripain inhibition effects |  |
| AKRHHGYKRKF [peptide 118] | bacteria mediated hemagglutination inhibition | 6.25 |  | 4.35 | clostripain inhibition effects |  |
| peptide 117: subpeptide of peptide 113 (SEQ ID NO: 19) (KRHHGYKRKFH) | bacteria mediated hemagglutination inhibition |  | clostripain inhibition effects |  |  |  |
| AKRHHGYKRKFH [peptide 113] | bacteria mediated hemagglutination inhibition | 25 |  |  | clostripain inhibition effects | 25 |
| KRHHGYKRKF [peptide 129] | bacteria mediated hemagglutination inhibition | 50 |  |  | clostripain inhibition effects | 19 |
